In patent US20250230193A1, “CYCLIC COMPOUND HAVING SELECTIVE KRAS INHIBITORY EFFECT ON HRAS AND NRAS” (CHUGAI SEIYAKU KABUSHIKI KAISHA, priority 2022, published 2025):
*1 amine or outer side, *2 acyl side, *3 side chain or, on linkers, in order; H or OH if unused. Where a SMILES comes first, the peptide text is derived from it. Bridges are numbered along the chain shown (N, C = ends). [ ]: non-standard residue; d: D form. The star is where a group is joined. hPhe(3-Cl-4-CF3) = N[C@@H](CCc1ccc(C(F)(F)F)c(Cl)c1)C(=O)O; NPrPhe(4-CF3) = CCCN[C@@H](Cc1ccc(C(F)(F)F)cc1)C(=O)O; NMeGly(cPent) = CN[C@H](C(=O)O)C1CCCC1; X15 = O=C(CN(CC(F)F)[*:1])[*:2]; NMeD = CN[C@@H](CC(=O)O)C(=O)O; NMeL = CN[C@@H](CC(C)C)C(=O)O; Morpholide = C1CN(*)CCO1; Ac5c = NC1(C(=O)O)CCCC1; Sar = CNCC(=O)O

How the values were obtained:
[1] = target: GDP-bound NRAS wild-type protein (Homo sapiens, UniProt P01111); test: Binding to NRAS by surface plasmon resonance (SPR), Single Cycle Kinetics; conditions: SPR; for NRAS/KRAS (ratio of KD value with respect to NRAS to KD value with respect to KRAS): GDP-bound NRAS wild-type vs GDP-bound KRAS wild-type
[2] = target: GDP-bound HRAS wild-type protein (Homo sapiens, UniProt P01112); test: Binding to HRAS by surface plasmon resonance (SPR), Single Cycle Kinetics; conditions: SPR; for HRAS/KRAS (ratio of KD value with respect to HRAS to KD value with respect to KRAS): GDP-bound HRAS wild-type vs GDP-bound KRAS wild-type
Chain of GDP-bound HRAS wild-type protein (P01112 whole entry): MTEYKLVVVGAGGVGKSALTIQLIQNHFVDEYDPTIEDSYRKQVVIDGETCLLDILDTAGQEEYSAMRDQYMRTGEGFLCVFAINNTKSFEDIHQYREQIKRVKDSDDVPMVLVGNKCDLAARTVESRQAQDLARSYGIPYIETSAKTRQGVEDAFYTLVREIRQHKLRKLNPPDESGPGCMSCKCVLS

Chain of GDP-bound NRAS wild-type protein (P01111 whole entry): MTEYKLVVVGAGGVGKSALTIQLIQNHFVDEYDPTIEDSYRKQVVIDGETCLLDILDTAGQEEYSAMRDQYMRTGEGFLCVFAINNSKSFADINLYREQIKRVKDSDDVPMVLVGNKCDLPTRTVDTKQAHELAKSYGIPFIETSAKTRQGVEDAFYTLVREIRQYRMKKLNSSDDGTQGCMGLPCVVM

Row | SMILES | NRAS/KRAS (ratio of KD value with respect to GDP-bound NRAS wild-type protein to KD value with respect to KRAS) [1] | HRAS/KRAS (ratio of KD value with respect to GDP-bound HRAS wild-type protein to KD value with respect to KRAS) [2] | also measured
1 | CCCN1C(=O)CN(C)C(=O)CN(CC(F)F)C(=O)[C@H]([C@@H](C)CC)NC(=O)[C@H](CC(C)C)N(C)C(=O)C[C@@H](C(=O)N2CCOCC2)N(C)C(=O)[C@H](C2CCCC2)N(C)C(=O)C2(CCCC2)NC(=O)[C@@H]2CCCN2C(=O)[C@H](CCc2ccc(C(F)(F)F)c(Cl)c2)NC(=O)CN(C)C(=O)[C@@H]1Cc1ccc(C(F)(F)F)cc1 [PP0752] ([NMeL]I[X15][Sar][NPrPhe(4-CF3)][Sar][hPhe(3-Cl-4-CF3)]P[Ac5c][NMeGly(cPent)][NMeD]-Morpholide; lactam N-11) | B (a compound having 3 or more and less than 10 is denoted as B) | B (a compound having 3 or more and less than 10 is denoted as B) | 
2 | CC[C@H](C)[C@@H]1NC(=O)[C@H](CC)N(C)C(=O)C[C@@H](C(=O)N(C)C)N(C)C(=O)[C@H](C2CCCC2)N(C)C(=O)C2(CCC2)NC(=O)[C@@H]2CCCCN2C(=O)[C@H](CCc2cc(F)c(C(F)(F)F)c(F)c2)NC(=O)CN(C)C(=O)[C@H](Cc2ccc(C(F)(F)F)cc2)N2CCCCC[C@@H](C2=O)N(C)C(=O)CN(C)C1=O [PP0655] | B (a compound having 3 or more and less than 10 is denoted as B) | B (a compound having 3 or more and less than 10 is denoted as B) | 
3 | CCOC[C@H]1C(=O)N[C@@H]([C@@H](C)CC)C(=O)N2CCC[C@H]2C(=O)N(C)[C@H]2C/C=C\CCN(C2=O)[C@@H](Cc2ccc(C)cc2)C(=O)N(C)CC(=O)N[C@@H](CCc2ccc(C(F)(F)F)c(OC)c2)C(=O)N2C[C@@H](C)C[C@H]2C(=O)NC2(CC(C)(C)C2)C(=O)N(C)[C@@H](C2CCCC2)C(=O)N(C)[C@H](C(=O)N(C)CC)CC(=O)N1C [PP2427] |  |  | NRAS/KRAS (ratio of KD value with respect to NRAS to KD value with respect to KRAS) [1]: AA (a compound having 20 or more is denoted as AA); HRAS/KRAS (ratio of KD value with respect to HRAS to KD value with respect to KRAS) [2]: A (a compound having 10 or more and less than 20 is denoted as A)
4 | CCO[C@@H]1C[C@H]2C(=O)NC3(CCC3)C(=O)N(C)[C@@H](C3CCCC3)C(=O)N(C)[C@H](C(=O)N3CCOCC3)CC(=O)N(C)[C@@H](COC)C(=O)N[C@@H]([C@@H](C)CC)C(=O)N(C)CC(=O)N(C)[C@H]3CCCCCN(C3=O)[C@@H](Cc3ccc(F)cc3)C(=O)N(C)CC(=O)N[C@@H](CCc3cc(F)c(C(F)(F)F)c(F)c3)C(=O)N2C1 [PP1179] |  |  | NRAS/KRAS (ratio of KD value with respect to NRAS to KD value with respect to KRAS) ([1]; KD ratio): B (a compound having 3 or more and less than 10 is denoted as B); HRAS/KRAS (ratio of KD value with respect to HRAS to KD value with respect to KRAS) ([2]; KD ratio): B (a compound having 3 or more and less than 10 is denoted as B)
5 | CCO[C@@H]1C[C@H]2C(=O)NC3(CCC3)C(=O)N(C)[C@@H](C3CCCC3)C(=O)N(C)[C@H](C(=O)N(C)C)CC(=O)N(C)[C@@H](CC)C(=O)N[C@@H]([C@@H](C)CC)C(=O)N(C)CC(=O)N(C)[C@H]3CCCCCN(C3=O)[C@@H](Cc3ccc(C(F)(F)F)cc3)C(=O)N(C)CC(=O)N[C@@H](CCc3cc(F)c(C(F)(F)F)c(F)c3)C(=O)N2C1 [PP0663] | B (a compound having 3 or more and less than 10 is denoted as B) | B (a compound having 3 or more and less than 10 is denoted as B) | 
6 | CCO[C@@H]1C[C@H]2C(=O)NC3(CCC3)C(=O)N(C)[C@@H](C3CCCC3)C(=O)N(C)[C@H](C(=O)N(C)C)CC(=O)N(C)[C@@H](CC3CCCCC3)C(=O)N[C@@H]([C@@H](C)CC)C(=O)N(C)CC(=O)N(C)[C@H]3CCCCN(C3=O)[C@@H](Cc3ccc(C(F)(F)F)cc3)C(=O)N(C)CC(=O)N[C@@H](CCc3cc(F)c(C(F)(F)F)c(F)c3)C(=O)N2C1 [PP0701] | C (A compound having a KD ratio of 0.1 or more and less than 3 is denoted as C) | B (a compound having 3 or more and less than 10 is denoted as B) | 
7 | CCO[C@@H]1C[C@H]2C(=O)NC3(CCC3)C(=O)N(C)[C@@H](C3CCCC3)C(=O)N(CCC3CCCC3)[C@H](C(=O)N3CCOCC3)CC(=O)N(C)[C@@H](CC(C)C)C(=O)N[C@@H]([C@@H](C)CC)C(=O)N(C)CC(=O)N(C)[C@H]3CCCCN(C3=O)[C@@H](Cc3ccc(C(F)(F)F)cc3)C(=O)N(C)CC(=O)N[C@@H](CCc3cc(F)c(C(F)(F)F)c(F)c3)C(=O)N2C1 [PP0651] | B (a compound having 3 or more and less than 10 is denoted as B) | B (a compound having 3 or more and less than 10 is denoted as B) | 
8 | CC[C@H](C)[C@@H]1NC(=O)[C@H](COC)N(C)C(=O)C[C@@H](C(=O)N2CCOCC2)N(C)C(=O)[C@H](C2CCCC2)N(C)C(=O)C2(CCCC2)NC(=O)[C@@H]2CCCN2C(=O)[C@H](CCc2ccc(C(F)(F)F)c(Cl)c2)NC(=O)CN(C)C(=O)[C@H](Cc2ccc(F)cc2)N2CCCCC[C@@H](C2=O)N(C)C(=O)CN(C)C1=O [PP0960] |  |  | NRAS/KRAS (ratio of KD value with respect to NRAS to KD value with respect to KRAS) ([1]; KD ratio): B (a compound having 3 or more and less than 10 is denoted as B); HRAS/KRAS (ratio of KD value with respect to HRAS to KD value with respect to KRAS) ([2]; KD ratio): B (a compound having 3 or more and less than 10 is denoted as B)
